Our source for the TGI values is PubChem BioAssay (NCI).

Test in all cases: growth of human tumour cells (NCI), 48 h
Assay [1] deals with M19-MEL melanoma.
Assay [2] has as its system RXF-631 renal.
The subject of assay [3] is HOP-18 NSCLC.
The test system of assay [4] is LXFL 529 NSCLC.
The test system of assay [5] is DMS 273 small cell lung.
In assay [6] the test system is DMS 114 small cell lung.
Assay [7] concerns XF 498 CNS.
The test system of assay [8] is SNB-78 CNS.
The subject of assay [9] is MDA-N.

“And” between values parts separate entries of the source, which are not always exact repeats. Equal values may be shown once.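 Briefly, cells in 96-well plates were exposed to five compound concentrations for 48 h, and endpoints were estimated by linear interpolation. At the TGI there is no net growth.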 *1 amine or outer side, *2 acyl side, *3 side chain or, on linkers, in order; H or OH if unused. Where a SMILES comes first, the peptide text is derived from it. Bridges are numbered along the chain shown (N, C = ends). Roman numbers before positions name the chains, in order. [ ]: non-standard residue; d: D form. Actinocin(9to1) = Cc1c2oc3c(C)ccc(C(=O)[*:1])c3nc-2c(C(=O)[*:2])c(N)c1=O; NMeT = CN[CH](C(=O)O)[CH](C)O; Sar = CNCC(=O)O

`Cn1nc(-c2ccccc2)c(C(=O)/C=C/c2ccc(Cl)cc2)c(N2CCCCC2)c1=O`: the TGI in assay [1] was determined as 5.07 µM; in assay [2], 9.79 µM; in assay [3], 4.94 µM; in assay [4], 3.33 µM; in assay [5], 6.75 µM; in assay [6], 4.37 µM. The compound also came in with a TGI in assay [7] of 3.91 µM.

As to `CC1=C[C@]2(O)C(=O)[C@H](C)C[C@H]3[C@@H](CC[C@@](C)(O)/C=C\2C1=O)C3(C)C`, the TGI was 82.5 µM in [8]; 33.4 µM in assay [1]; > 74.3 µM in assay [2]; 98.9 µM in [3]; 37.9 µM in [4]; 52.3 µM in assay [5]. For the same compound, the TGI in [6] is > 53.9 µM; in [7], 32.8 µM.

Take `CNC/C(Cl)=N/S(=O)(=O)c1ccc(C)cc1`: the TGI in [9] turned out to be 29.5 µM.

Regarding `Cc1cc(=O)oc2c(C)c(O)ccc12`, the TGI in [9] is > 100 µM.

With `CCOc1ccc(N=Cc2ccc3cc(C)ccc3n2)cc1`, the TGI in assay [8], in assay [1], in assay [2], in [3], in [4] and in [5] was > 100 µM throughout. Also, the TGI in assay [6] and in assay [7] was > 100 µM throughout.

For the compound `Cc1c2oc3c(C)ccc(C(=O)NC4C(=O)NC(C(C)C)C(=O)N5CCCC5C(=O)N(C)CC(=O)N(C)C(C(C)O)C(=O)OC4C)c3nc-2c(C(=O)NC2C(=O)NC(C(C)C)C(=O)N3CCCC3C(=O)N(C)CC(=O)N(C)C(C(C)O)C(=O)OC2C)c(N)c1=O` (centres undefined) (I: TVP[Sar][NMeT] / II: TVP[Sar][NMeT]; ester I:1-I:C, II:1-II:C; linker I:N-II:N via Actinocin(9to1); configuration not given here), the TGI in [9] was 16.9 µM and > 1 µM.

Take `CC(C)(C)CC(C)(C)c1cc2c(O)c(c1)Cc1cc(C(C)(C)CC(C)(C)C)cc(c1O)Cc1cc(C(C)(C)CC(C)(C)C)cc(c1O)Cc1cc(C(C)(C)CC(C)(C)C)cc(c1O)Cc1cc(C(C)(C)CC(C)(C)C)cc(c1O)C2`: the TGI in [8], in [1], in [4], in [5], in assay [6] and in assay [7] was > 100 µM in each case.

As for `COC(=O)C1=C(O)c2cc(-c3ccccc3)c(-c3ccccc3)c(C#N)c2NC(=O)C1`, the TGI is > 100 µM in assay [8]; > 100 µM in assay [1]; 41 µM in assay [2]; > 100 µM in assay [4]; > 100 µM in assay [5]; > 100 µM in assay [6]. In addition, the TGI in assay [7] was > 100 µM.

In the case of `COc1ccc2c3c([nH]c2c1[N+](=O)[O-])C(C)N(Cc1ccc([N+](=O)[O-])cc1)CC3` (centres undefined), the TGI is > 100 µM in [8], 59.8 µM in [4] and 27.8 µM in assay [5].

For the compound `O=C1C=CC(=O)C12CCc1ccccc12`, the TGI in [8] was > 100 µM; in [1] it was > 100 µM; in assay [2] it was > 100 µM; in assay [3] it was 97.4 µM; in assay [4], > 100 µM; in [5], > 100 µM. Moreover, the TGI in assay [6] and in assay [7] was > 100 µM in each case.

In the case of `COc1ccc(-c2cc(=O)c3ccccc3o2)cc1N`, the TGI in assay [8], in [1], in [2], in [3], in assay [4] and in assay [5] was > 100 µM in each case. Further, the values for the TGI in [6] and in assay [7] were > 100 µM and 91.1 µM, respectively.

`NC[C@H]1Nc2ccccc2[C@@H](O)C1O` (some centres undefined): the TGI in [9] is > 100 µM.

Take `CC(=C/C=C/C=C(C)\C=C\C=C(\C)C(=O)O)/C=C/C=C(/C)C(=O)O`: the TGI in [9] was > 100 µM.

Take `O=C1[C@H]2ON(c3ccccc3)C(c3ccccc3)[C@H]2C(=O)N1c1ccc(Cc2ccc(N3C(=O)[C@@H]4ON(c5ccccc5)C(c5ccccc5)[C@@H]4C3=O)cc2)cc1` (some centres undefined): the TGI in assay [8], in assay [2], in [3], in assay [4], in assay [5] and in assay [6] was > 100 µM throughout.

For the compound `O=C1O[C@H](c2ccccc2)[C@@H]2CC3(CCN12)OCCO3`, the TGI in [2], in [4], in assay [5] and in assay [7] was > 100 µM in each case.

Take `CCN(CC)CCCNC(=O)C1COc2cc(-c3cc(=O)c4ccccc4o3)ccc2O1` (centres undefined): the TGI in assay [8] was > 100 µM; in assay [1], 76.4 µM; in assay [2], > 100 µM; in [3], > 100 µM; in assay [4] it was > 100 µM; in assay [5], > 100 µM. The TGI in assay [6] was 50.9 µM.

Consider `O=C(O)NC(c1ccccc1)C(NC(=O)c1ccccc1)c1ccccc1` (centres undefined), for which the TGI in assay [8], in [1], in assay [3], in assay [6] and in assay [7] was > 100 µM throughout.

For `CCOC(=O)Cc1ccc2c(c1O)C(=O)c1c(ccc(CC(=O)OCC)c1O)C2=O`, the TGI in assay [8], in assay [1], in [3], in assay [4], in assay [5] and in assay [6] was > 100 µM throughout. For the same compound, in assay [7], the TGI was > 100 µM.

As for `O=C(c1ccccc1)c1c(-c2ccccc2)sc2nc3ccccc3nc12`, the TGI in [8], in assay [1], in assay [5], in assay [6] and in assay [7] was > 100 µM throughout.
